Values quoted from earlier work as cited in US20250101519A1, “USE OF HYPOXIA-INDUCIBLE FACTOR 1 ALPHA AS MARKER IN DEPRESSION RECURRENCE DIAGNOSIS” (NINGBO UNIVERSITY, priority 2022, published 2025).

Legend:
[1] = in humans
[2] = in mice; other references report various values

Structure (SMILES): CNCCC(Oc1ccc(C(F)(F)F)cc1)c1ccccc1 (centres unmarked) [fluoxetine]
- metabolic clearance half-life [1]: 96 to 140 h
- clearance half-life [2]: 9 h
